This is an account of results in patent publication US5425942A, “Polyfunctinal protease” (Otsuka Pharamceutical Co., Ltd., priority 1988, dated 1995).

The experiment addresses T1, human proteasome (Homo sapiens, UniProt P28072+P28074+Q99436).
T1 construct: The desired homogeneous human proteasome was thus recovered in the fraction at about 340 mM KCl; from tissue
The experiment can be described thus: Activity inhibition of human proteasome by protease inhibitors. It counts as biochemical.

Several values for one entry are separate records, joined by “and”; a condition that tells them apart may be missing. Equal values may be shown once. Read-outs that look alike come from different tables or passages of the source.

In the case of `CCN1C(=O)C=CC1=O` [C, N-ethylmaleimide], the “Inhibition Rate (%) by Inhibitor” value is 96% and 99%. Where the note is “read-out: Inhibition Rate (%) by Inhibitor”, the inhibition at 10000 µM came out at 88%.
Regarding Chymostatin [B], the “Inhibition Rate (%) by Inhibitor” value reads like this: (substrate Cbz-Ala-Arg-Arg-MNA, inhibitor 50 μg/ml, 2 μg proteasome, room temperature, one hour, optimal pH) 19%; (substrate Cbz-Leu-Leu-Glu-NA, inhibitor 50 μg/ml, 2 μg proteasome, room temperature, one hour, optimal pH) 0%; (substrate Suc-Leu-Leu-Val-Tyr-MCA, inhibitor 50 μg/ml, 2 μg proteasome, room temperature, one hour, optimal pH) 75%.

What is called inhibition is the share of the control response that was lost under treatment.
